Values of other authors as cited in US20180289729A1, “COMBINATION THERAPY FOR TREATMENT OF HUMAN NEURODEGENERATIVE DISEASES” (priority 2017, published 2018).

Assays:
[1] = system: proliferating neural stem and progenitor cells within the hippocampal dentate gyrus; details: both young and "old" mice models
hippocampal neurogenesis = details: rat models

For `Cc1cccc(-c2n[nH]cc2-c2ccc3ncccc3n2)n1` [2-(3-(6-methylpyricin-2-yl)-1H-pyrazol-4-yl)-1,5-naphthyridine], the “increase in the number of proliferating neural stem and progenitor cells within the hippocampal dentate gyrus” value [1] is listed as “two-fold increase”.

In the case of `CCCCCCC(C)(C)c1cc(O)c2c(c1)OC(C)(C)[C@@H]1CC=C(CO)C[C@@H]21` [[(6aR)-trans-3-(1,1-dimethylheptyl)-6a, 7,10,10a-tetrahydro-1-hydroxy-6,6-dimethyl-6H-dibenzo [b,d]pyran-9-methanol]], the “effect on hippocampal neurogenesis” value (hippocampal neurogenesis) is given as “dramatic effect”.
